Results on 20 molecules are retold here after ChEMBL document CHEMBL5244212, “Recent advances in the rational design and development of LIM kinase inhibitors are not enough to enter clinical trials” (Eur J Med Chem, 2018).

Bounds are passed on as bounds.

One data set relates to MDA-MB-231. Briefly: Cytotoxicity against human MDA-MB-231 cells assessed as reduction in cell viability incubated for 96 hrs at 3 uM by MTT method relative to control. In kind it is functional.
The target of data set [1] is T1, LIM domain kinase 1 (Homo sapiens, UniProt P53667). Briefly: Inhibition of LIMK1 (unknown origin) phosphorylation of cofilin.
Target sequence in this assay (P53667 whole entry, the tested form may be a part): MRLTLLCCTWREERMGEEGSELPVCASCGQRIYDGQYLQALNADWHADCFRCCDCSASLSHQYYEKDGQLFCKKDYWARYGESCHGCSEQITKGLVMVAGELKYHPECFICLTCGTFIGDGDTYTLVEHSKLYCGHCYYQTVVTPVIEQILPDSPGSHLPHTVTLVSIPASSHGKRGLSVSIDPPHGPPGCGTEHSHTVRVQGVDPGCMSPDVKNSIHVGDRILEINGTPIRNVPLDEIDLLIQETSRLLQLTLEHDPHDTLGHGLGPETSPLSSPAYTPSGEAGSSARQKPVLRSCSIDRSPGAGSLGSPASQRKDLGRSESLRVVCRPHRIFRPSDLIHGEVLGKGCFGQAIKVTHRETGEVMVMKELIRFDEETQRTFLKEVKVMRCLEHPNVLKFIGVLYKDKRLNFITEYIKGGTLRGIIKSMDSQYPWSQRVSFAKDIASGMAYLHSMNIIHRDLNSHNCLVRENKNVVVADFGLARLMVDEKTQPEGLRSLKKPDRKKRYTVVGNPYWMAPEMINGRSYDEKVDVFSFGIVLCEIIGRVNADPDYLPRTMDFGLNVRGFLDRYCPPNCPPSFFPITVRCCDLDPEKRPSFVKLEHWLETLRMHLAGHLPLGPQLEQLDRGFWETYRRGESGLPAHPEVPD
For data set [2], the target named is Rho-associated protein kinase 2 (Homo sapiens, UniProt O75116). Briefly: Inhibition of human recombinant ROCK2 by ADP glo kinase assay.
Rho-associated protein kinase 2, sequence (O75116 whole entry): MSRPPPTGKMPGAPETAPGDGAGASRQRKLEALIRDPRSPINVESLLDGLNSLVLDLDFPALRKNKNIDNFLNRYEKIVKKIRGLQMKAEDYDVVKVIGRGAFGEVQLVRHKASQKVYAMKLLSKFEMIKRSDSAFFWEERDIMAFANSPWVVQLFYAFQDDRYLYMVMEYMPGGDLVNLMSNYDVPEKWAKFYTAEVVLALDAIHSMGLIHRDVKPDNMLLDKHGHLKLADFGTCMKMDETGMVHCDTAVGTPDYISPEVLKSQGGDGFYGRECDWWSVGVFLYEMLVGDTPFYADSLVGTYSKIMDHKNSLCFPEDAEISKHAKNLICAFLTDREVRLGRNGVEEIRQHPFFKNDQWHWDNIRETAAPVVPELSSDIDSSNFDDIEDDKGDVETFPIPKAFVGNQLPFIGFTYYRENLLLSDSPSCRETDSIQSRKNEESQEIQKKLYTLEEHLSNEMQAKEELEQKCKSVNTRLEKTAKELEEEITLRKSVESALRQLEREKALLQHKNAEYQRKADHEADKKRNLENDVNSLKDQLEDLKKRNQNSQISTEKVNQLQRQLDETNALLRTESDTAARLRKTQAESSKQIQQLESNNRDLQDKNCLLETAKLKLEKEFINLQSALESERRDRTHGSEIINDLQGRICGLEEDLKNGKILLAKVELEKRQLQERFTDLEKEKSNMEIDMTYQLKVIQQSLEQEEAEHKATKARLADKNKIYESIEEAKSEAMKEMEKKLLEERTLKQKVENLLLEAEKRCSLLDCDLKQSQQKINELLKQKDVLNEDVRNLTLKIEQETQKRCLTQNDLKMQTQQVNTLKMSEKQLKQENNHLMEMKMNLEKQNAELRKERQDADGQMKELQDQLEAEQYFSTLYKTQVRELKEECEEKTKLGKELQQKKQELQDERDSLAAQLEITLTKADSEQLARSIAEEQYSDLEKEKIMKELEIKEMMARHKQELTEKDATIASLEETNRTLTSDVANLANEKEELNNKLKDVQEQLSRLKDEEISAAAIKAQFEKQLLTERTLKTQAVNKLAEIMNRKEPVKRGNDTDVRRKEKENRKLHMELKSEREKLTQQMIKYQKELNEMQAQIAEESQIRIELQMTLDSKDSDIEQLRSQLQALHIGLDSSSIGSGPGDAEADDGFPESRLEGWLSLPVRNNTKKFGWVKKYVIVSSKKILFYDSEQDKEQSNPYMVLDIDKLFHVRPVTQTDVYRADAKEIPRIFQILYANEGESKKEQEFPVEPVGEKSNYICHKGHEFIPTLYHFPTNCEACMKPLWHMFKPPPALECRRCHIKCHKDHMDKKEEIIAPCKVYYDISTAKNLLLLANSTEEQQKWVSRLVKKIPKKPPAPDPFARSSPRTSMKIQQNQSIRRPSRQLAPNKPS
Data set [3] can be described thus: Half life in rat, iv at 1 mg/kg. In kind it is ADME, organism-based. Particulars: in vivo.
The next data set is filed under the species Mus musculus. Kind of data set: Antiglaucoma activity in ocular […] mouse assessed as reduction in intraocular pressure at 15 ug measured after 4 hrs. In kind it is functional. Particulars: dose 15 µg.
A short description of another data set: cells. Particulars: Mus musculus, NF-1.
The target in data set [4] is T2, LIM domain kinase 2 (Homo sapiens, UniProt P53671). Kind of data set: Inhibition of human recombinant LIMK2.
T2 sequence (P53671 whole entry, the tested form may be a part): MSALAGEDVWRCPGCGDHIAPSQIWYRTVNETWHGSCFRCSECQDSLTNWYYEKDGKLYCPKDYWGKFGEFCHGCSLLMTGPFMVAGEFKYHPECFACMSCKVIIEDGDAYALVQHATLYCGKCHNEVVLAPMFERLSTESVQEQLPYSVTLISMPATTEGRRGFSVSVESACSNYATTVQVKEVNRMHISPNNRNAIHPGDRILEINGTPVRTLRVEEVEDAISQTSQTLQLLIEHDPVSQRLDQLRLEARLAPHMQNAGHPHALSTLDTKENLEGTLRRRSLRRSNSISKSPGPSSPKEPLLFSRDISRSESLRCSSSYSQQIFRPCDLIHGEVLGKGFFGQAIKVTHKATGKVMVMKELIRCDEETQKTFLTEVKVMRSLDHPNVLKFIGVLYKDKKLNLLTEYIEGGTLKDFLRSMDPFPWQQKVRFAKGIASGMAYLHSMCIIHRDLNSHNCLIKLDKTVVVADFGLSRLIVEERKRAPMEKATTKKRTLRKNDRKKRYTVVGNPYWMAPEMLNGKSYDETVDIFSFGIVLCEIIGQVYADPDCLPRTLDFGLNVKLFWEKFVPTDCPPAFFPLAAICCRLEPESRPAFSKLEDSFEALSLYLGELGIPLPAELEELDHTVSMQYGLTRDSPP
Data set [5] deals with T1, LIM domain kinase 1. Kind of data set: Inhibition of human recombinant LIMK1.
Target sequence in this assay (P53667 whole entry, the tested form may be a part): as the sequence (P53667 whole entry, the tested form may be a part) above
Data set [6] concerns the target T2, LIM domain kinase 2. Briefly: Inhibition of LIMK2 (unknown origin).
Data set [7] has as its target T1, LIM domain kinase 1. Briefly: Inhibition of LIMK1 (unknown origin).
Target sequence in this assay (P53667 whole entry, the tested form may be a part): as above
Data set [8] has as its target T2, LIM domain kinase 2. Briefly: Inhibition of LIMK2 (unknown origin) in presence of ATP at 200 uM.
In data set [9] the target is T1, LIM domain kinase 1. Kind of data set: Inhibition of human LIMK1 (321 to 647 residues) expressed in Sf9 cells using […] as substrate incubated for 30 mins by micro-scintillation fluid method.
Target sequence in this assay (P53667 whole entry, the tested form may be a part): as above
In data set [10] the target is T1, LIM domain kinase 1. Briefly: Inhibition of human LIMK1 (312 to 638 residues) expressed in Sf9 cells using […] as substrate incubated for 30 mins by micro-scintillation fluid method.
Target sequence in this assay (P53667 whole entry, looked up, the tested form may be a part): as the sequence (P53667 whole entry, the tested form may be a part) above
Data set [11] concerns the target T2, LIM domain kinase 2. Kind of data set: Inhibition of LIMK2 (unknown origin) in presence of ATP at 25 uM.
Data set [12] concerns the target cAMP-dependent protein kinase (PKA) (Homo sapiens) (UniProt P22694+P17612+P22612). Kind of data set: Inhibition of PKA (unknown origin) assessed as fold increase. In kind it is protein assay.
A further data set is filed under the species Homo sapiens. Kind of data set: Selectivity index, ratio of IC50 for ROCK2 (unknown origin) to IC50 for PKA (unknown origin).
The test system of data set [13] is Human immunodeficiency virus. Kind of data set: Antiviral activity against HIV at 100 uM relative to control. In kind it is functional.
For data set [14], the system named is Human immunodeficiency virus. Briefly: Antiviral activity against HIV at 1 uM relative to control. In kind it is functional.
The test system of data set [15] is Human immunodeficiency virus. Kind of data set: Antiviral activity against HIV at 10 uM relative to control. In kind it is functional.
For data set [16], the system named is PANC-1. Kind of data set: Cytotoxicity against human PANC-1 cells assessed as reduction in cell growth relative to control. Further details: scale not given: the % may be the effect or the level left. In kind it is functional.
Data set [17] has as its system PANC-1. Briefly: Anti-tumor activity against human PANC-1 cells xenografted in athymic nude mouse assessed as reduction in tumor growth at 100 mg/kg, ip measured after 35 days relative to control. Further details: scale not given: the % may be the effect or the level left. The note with it: time 35 day. In kind it is functional.
Data set [18] can be described thus: Inhibition of AbI (unknown origin). Also on record: species or system Homo sapiens.

For the molecule `CC(C)CNc1ncc(-c2ccncc2-c2ccccc2Cl)s1`, the Activity in the data set with MDA-MB-231 stood at 70%.

In turn, `COCCN(C(=O)Nc1ccc(-c2ncnc3[nH]c(C)c(C)c23)c(F)c1)c1ccc(Cl)cc1` registered an IC50 on LIM domain kinase 1 [1] of 8 nM.

As to `Cc1c[nH]c2ncnc(-c3ccc(NC(=O)Nc4cccc(C(=O)NC(C)C)c4)cc3F)c12`, the concentration for half-maximal inhibition (IC50) in data set [2] stood at 18 nM.

Take `Cc1c[nH]c2ncnc(-c3ccc(NC(=O)N(CCN(C)C)c4ccc(Cl)cc4)cc3)c12`: in [3], the half-life was 6 h.

For the molecule `O=C(CC1CCCN1)Nc1ncc(-c2cc(C(F)F)nn2-c2c(Cl)cccc2Cl)s1` (configuration not stated), in the data set filed under Mus musculus, the Activity stood at 5 mmHg.

The molecule `CC(C)C(=O)Nc1ncc(-c2cc(C(F)F)nn2-c2c(Cl)cccc2Cl)s1` came in with an EC50 in “cells” of 30000 nM.

Turning to `Cc1c2cc[nH]c(=O)c2c(C)c2c1[nH]c1ccc(OC(=O)c3ccccc3)cc12`, the figures for the half-inhibitory concentration (IC50) on LIM domain kinase 2 [4] and on LIM domain kinase 1 [5] were 75 nM and 50 nM, respectively.

As for `CN(C)C1(C(=O)Nc2cccc(-c3ccccc3)c2)CCN(c2ncnc3[nH]c4c(c23)CCCC4)CC1`, the half-maximal inhibitory concentration (IC50) on LIM domain kinase 2 [6] turned out to be 0.1 nM.

`Cc1[nH]c2ncnc(N3CCC(CN)(C(=O)Nc4cccc(OC(=O)N(C)C)c4)CC3)c2c1C`: the IC50 against LIM domain kinase 1 [7] amounted to 23 nM.

`COC(=O)Cc1cccc(NC(=O)C2(CN)CCN(c3ncnc4[nH]c5c(c34)CC(F)CC5)CC2)c1` (configuration not stated): the IC50 on LIM domain kinase 2 [8] was less than 0.1 nM.

In the case of `O=C(Nc1ncc(-c2cc(C(F)F)nn2-c2c(Cl)cccc2Cl)s1)C1CC1`, the results for the half-inhibitory concentration (IC50) on LIM domain kinase 1 [9] and against LIM domain kinase 1 [10] were 5 nM and 6 nM, respectively.

Take `Cc1c[nH]c2ncnc(N3CCC(C(=O)Nc4cccc(OC(=O)N(C)C)c4)[C@@H](C)C3)c12` (some centres not stated): the 50% inhibitory concentration (IC50) at LIM domain kinase 2 [11] stood at 110 nM.

`CN(C)C(=O)Oc1cccc(NC(=O)C2(CN)CCN(c3ncnc4[nH]c5c(c34)CCCC5)CC2)c1`: in data set [12], the fold change (FC) turned out to be 0.7. Also, the Selectivity Index in the data set listed under Homo sapiens is 1.

For the molecule `COC(=O)c1ccc2[nH]c(C3CCN(c4ncnc5[nH]cc(Cl)c45)CC3)nc2c1`, the Activity in data set [13] worked out at 80%; in data set [14], 50%; in data set [15], 70%.

Turning to `COc1cc(-c2nn(C3CCC(N4CCN(C)CC4)CC3)c3ncnc(N)c23)ccc1NC(=O)OCc1ccccc1` (configuration not stated), the figures for the half-inhibitory concentration (IC50) at LIM domain kinase 1 [7] and at LIM domain kinase 2 [6] were 900 nM and 800 nM, respectively.

Regarding `Cc1cc(C(=O)Nc2cccc(C(=O)Nc3cccc(C(F)(F)F)c3)c2)on1`, the Activity in the data set on PANC-1 [16] was 46%; with PANC-1 [17] it was 80%.

With `Cc1c[nH]c2ncnc(N3CCN(C(=O)Nc4cccc(OC(=O)N(C)C)c4)[C@@H](C)C3)c12`, the Activity in the data set filed under Mus musculus came to 3 mmHg.

Turning to `CN(Cc1ccccc1)C(=O)c1ccc(S(=O)(=O)Nc2ccccc2)cc1`, in [18], half-maximal inhibition (IC50) was put at 6 nM.

Regarding `Cc1ccc(-c2cnccc2-c2cnc(Nc3ccc(O)cc3)s2)c(Cl)c1`, the Activity with MDA-MB-231 was 96%.

As for `Cc1c[nH]c2ncnc(N3CCC(C(=O)Nc4cccc(OC(=O)N(C)C)c4)C(C)C3)c12` (configuration not stated), at LIM domain kinase 2 [11], the IC50 turned out to be 210 nM.
